According to patent EP0091528A1, “-N-(1-propyl-2-pyrrolidylmethyl)-2-methoxy-5-sulfamoyl benzamide and its use against some sorts of depression” (priority 1982, dated 1983):
Values joined by “and” are separate entries in the source; they are usually repeats but may differ in a detail not shown here. Equal values may be shown once. Read-outs that look alike come from different tables or passages of the source.

Legend:
[1] = Double-blind comparative clinical trial versus imipramine in depression; assay type: in vivo, humaine; conditions: for tolérance tant clinique que biologique: 450 mg par jour (compound), 150 mg par jour (IMIPRAMINE)
Description: En conséquence, un essai clinique comparatif en double aveugle a été mené mettant en oeuvre le composé selon l'invention et l'IMIPRAMINE, produit de référence indiscutable dans le traitement de certains états dépressifs.
Les posologies retenues ont été fixées : • . pour l'IMIPRAMINE en fonction des données acquises et de la posologie préconisée par le fabricant, c'est-à-dire : 150 mg par jour, dose atteinte progressivement en 5 jours; • . pour le composé selon l'invention, à partir des données recueillies par les études antérieures, c'est-à-dire : 450 mg par jour. Bien que cette posologie puisse, du fait de l'excellente tolérance du produit, être administrée d'emblée, pour se plier aux règles du double-aveugle et respecter le mode d'administration optimum pour l'IMIPRAMINE, cette dose n'a également été atteinte que le Sème jour après deux paliers successifs de : 150 et 300 mg par jour. Toutefois d'autres études permettent de penser que des doses plus faibles du composé selon l'invention aboutissent à des résultats similaires.
Ces doses ont été administrées pendant 28 jours consécutifs en mono- thérapie, dans toute la mesure du possible.
Pouvaient entrer dans l'étude, les sujets présentant une dépression authentique c'est-à-dire atteignant le score de 36 à la version simplifiée à 17 items de l'échelle de Hamilton.
La comparaison entre les deux produits a porté sur l'efficacité thérapeutique et sur la tolérance, 34 cas ayant été analysés. Pour établir cette comparaison, le protocole prévoyait trois bilans : • . avant le début du traitement (JO) • . au 10ème jour (J10) • . au 28ème jour (J28)
Chacun de ces bilans comportait obligatoirement : • . une B.P.R.S. • une échelle de Hamilton (26 items) • une appréciation par l'expert de 1"'intensité du syndrome dépressif" • une recherche des troubles somatiques associés à l'état dépressif.
De plus, à JO et à J28, il a été pratiqué une auto-appréciation de son état par le malade (S.D.S.) et un bilan biologique standard.
Enfin, en fin de traitement, il a été convenu d'exprimer une impression subjective globale sur l'intérêt du traitement pour chaque observation.

[2] = Acute toxicity, LD50 in mice by different routes; assay type: in vivo; conditions: souris; for LD50: mouse, in vivo, read-out: DL 50 (the source's name)
Excerpt: Au plan toxicologique, la détermination des DL 50 des deux produits administrés chez la souris par différentes voies ne révèle aucune différence majeure, le Sulpiride étant toutefois un peu moins toxique par voie buccale.

[3] = test system: récepteurs dopamine du centre du vomissement; assay: Antiemetic power in the dog (apomorphine-induced emesis); assay type: in vivo; conditions: vomiting induced by apomorphine
Excerpt: D'une façon générale, ces dérivés benzamides interfèrent dans les mécanismes dopaminergiques du système nerveux. Leurs effets bloquants sur les récepteurs dopamine centraux leur confèrent des propriétés neuroleptiques. Leur effet bloquant sur les récepteurs dopamine du centre du vomissement se traduit par un puissant antagonisme à l'égard de l'effet émétisant de certains agonistes dopaminergiques, tels que l'apomorphine et les alcaloïdes de l'ergot de seigle.
Au plan pharmacologique, les interférences des deux composés dans le système dopamine ont été comparées par différents tests adaptés à la mise en évidence des effets antagonistes et agonistes. Il en résulte que : • 1) - le composé selon l'invention et le Sulpiride sont de très puissants antagonistes dans le test de l'emesis chez le chien où les vomissements sont provoqués par l'agoniste apomorphine.
Les valeurs des DE 50 montrent que les activités des deux composés sont équivalentes.

[4] = test system: récepteurs dopamine centraux; assay: Inhibition of apomorphine-induced rearing (climbing) movement in mice; assay type: in vivo; conditions: souris, I.P., apomorphine 1 mg/kg S.C.
Description: 2) - Les deux composés ne se distinguent pas non plus quand leur propriété antagoniste dopaminergique centrale est jugée par exemple d'après l'inhibition qu'ils provoquent du mouvement de redressement induit chez la souris par l'apomorphine (1 mg/kg S.C.).
Les doses inhibitrices 50 de ce mouvement sont voisines pour les deux composés, respectivement : […]

[5] = test system: stéréotypies induites chez le Rat par l'apomorphine (agoniste direct); assay: Potentiation of apomorphine-induced stereotypies in the rat; assay type: in vivo; conditions: for DE50 vis-à-vis de l'apomorphine: Bliss method, two trials not named
Description: (§1) A cet effet, le composé de l'invention a été étudié vis-à-vis de la potentialisation des stéréotypies induites chez le Rat par deux agonistes dopaminergiques, l'apomorphine (agoniste direct) et la d-amphétamine (agoniste indirect).
(§2) Dans les deux essais, la dose d'agoniste est choisie telle qu'elle n'entraîne pas, chez tous les animaux d'expérience, l'apparition de mouvements stéréotypés de la sphère buccale de type léchage ou mâchonnement (Apomorphine : 0,250 mg.kg^-1 S.C. - d-amphétamine : 3 mg.kg^-1 I.P.).
(§3) L'observation de ce comportement stéréotypé chez un plus grand nombre d'animaux consécutif à l'administration de doses croissantes du composé de l'invention, injectées par voie I.P. 30 minutes avant l'agoniste, traduit un renforcement dopaminergique.
(§4) Les DE50 déterminées par la méthode de Bliss assortie des limites de confiance à 95% sont de 10,8 et 8,9 mg.kg.^-1 I.P. vis-à-vis de l'apomorphine et 1,4 et 2,6 mg.kg^-1 vis-à-vis de la d-amphétamine.

[6] = test system: stéréotypies induites chez le Rat par la d-amphétamine (agoniste indirect); assay: Potentiation of d-amphetamine-induced stereotypies in the rat; assay type: in vivo; conditions: for DE50 vis-à-vis de la d-amphétamine: Bliss method, two trials not named
Description: as §1, §2, §3, §4

[7] = Essai I, 4 mg.kg^-1 I.P. 30 min before Apomorphine 0,250 mg.kg^-1 S.C.
[8] = Essai I, 8 mg.kg^-1 I.P. 30 min before Apomorphine 0,250 mg.kg^-1 S.C.
[9] = Essai I, 16 mg.kg^-1 I.P. 30 min before Apomorphine 0,250 mg.kg^-1 S.C.
[10] = Essai I, 2 mg.kg^-1 I.P. 30 min before d-Amphétamine 3 mg.kg^-1 I.P.
[11] = Essai I, 4 mg.kg^-1 I.P. 30 min before d-Amphétamine 3 mg.kg^-1 I.P.
[12] = Essai I, 8 mg.kg^-1 I.P. 30 min before d-Amphétamine 3 mg.kg^-1 I.P.
[13] = Essai II, 4 mg.kg^-1 I.P. 30 min before Apomorphine 0,250 mg.kg^-1 S.C.
[14] = Essai II, 8 mg.kg^-1 I.P. 30 min before Apomorphine 0,250 mg.kg^-1 S.C.
[15] = Essai II, 16 mg.kg^-1 I.P. 30 min before Apomorphine 0,250 mg.kg^-1 S.C.
[16] = Essai II, 1 mg.kg^-1 I.P. 30 min before d-Amphétamine 3 mg.kg^-1 I.P.
[17] = Essai II, 4 mg.kg^-1 I.P. 30 min before d-Amphétamine 3 mg.kg^-1 I.P.
[18] = Essai II, 16 mg.kg^-1 I.P. 30 min before d-Amphétamine 3 mg.kg^-1 I.P.

Row | Compound | tolérance tant clinique que biologique ([1]; 28 days) | Pouvoir antiémétique chez le chien DE 50 S.C. [3] | doses inhibitrices 50 du mouvement de redressement [4] | % d'activité [5, 7] | Nombre d'animaux positifs/16 [5, 7] | % d'activité [5, 8] | Nombre d'animaux positifs/16 [5, 8] | % d'activité [5, 9] | Nombre d'animaux positifs/16 [5, 9] | % d'activité [6, 10] | Nombre d'animaux positifs/16 [6, 10] | % d'activité [6, 11] | Nombre d'animaux positifs/16 [6, 11] | % d'activité [6, 12] | Nombre d'animaux positifs/16 [6, 12] | also measured
1 | CN(C)CCCN1c2ccccc2CCc2ccccc21 [IMIPRAMINE, reference compound] | troubles de la série anticholinergique nettement plus importants et plus sévères |  |  |  |  |  |  |  |  |  |  |  |  |  |  | 
2 | CCN1CCCC1CNC(=O)c1cc(S(N)(=O)=O)ccc1OC (stereo not shown) [Sulpiride, N-(1-éthyl-2-pyrrolidinyl-méthyl)-2-méthoxy-5-sulfamoyl benzamide, reference compound] |  | 3,5-4,8 γ/kg | 22 mg/kg I.P. | 15% | 5 | 31% | 7 | 15% | 5 | 6% | 1 | 13% | 2 | 6% | 1 | LD50 ([2]; ip, I.P.): 210 mg/kg; LD50 ([2]; iv, I.V.): 43.5 to 44 mg/kg; LD50 ([2]; po, P.O.): 1800 to 2890 mg/kg; LD50 ([2]; sc, S.C.): 372 mg/kg; DE50 mg.kg^-1 I.P. base ([5]; Essai I, I.P., base, Apomorphine 0,250 mg.kg^-1 S.C., 95% confidence limits in brackets): inactif; DE50 vis-à-vis de l'apomorphine ([5]; I.P.): inactif; DE50 vis-à-vis de la d-amphétamine [6]: inactif; DE50 mg.kg^-1 I.P. base ([6]; Essai I, I.P., base, d-Amphétamine 3 mg.kg^-1 I.P., 95% confidence limits in brackets): inactif
3 | N-(1-propyl-2-pyrrolidylméthyl)-2-méthoxy-5-sulfamoyl benzamide [Composé selon l'invention] | moindre fréquence de l'apparition ou de l'aggravation d'une symptomatologie somatique | 4,1 γ/kg | 32 mg/kg I.P. | 23% | 6 | 46% | 9 | 69% | 12 | 38% | 6 | 69% | 11 | 88% | 14 | DL 50 ([2]; I.P.): 181 to 203 mg/kg; DL 50 ([2]; I.V.): 51,7-52,6 mg/kg; DL 50 ([2]; P.O.): 1411 to 1423 mg/kg; DL 50 ([2]; S.C.): 337 to 363 mg/kg; % d'activité [5, 13]: 7%; Nombre d'animaux positifs/16 [5, 13]: 2; % d'activité [5, 14]: 33%; Nombre d'animaux positifs/16 [5, 14]: 6; % d'activité [5, 15]: 67%; Nombre d'animaux positifs/16 [5, 15]: 11; DE50 vis-à-vis de l'apomorphine ([5]; I.P., listed as composé de l'invention): 10,8 mg.kg^-1 and 8,9 mg.kg^-1; DE50 vis-à-vis de la d-amphétamine ([6]; listed as composé de l'invention): 1,4 mg.kg^-1 and 2,6 mg.kg^-1; % d'activité [6, 16]: 38%; Nombre d'animaux positifs/16 [6, 16]: 6; % d'activité [6, 17]: 81%; Nombre d'animaux positifs/16 [6, 17]: 13; % d'activité [6, 18]: 94%; Nombre d'animaux positifs/16 [6, 18]: 15; efficacité ([1]; compared with IMIPRAMINE 150 mg par jour, compound 450 mg par jour, 28 days): au moins égale à celle de l'IMIPRAMINE; rapidité d'action sur l'état dépressif ([1]; compared with IMIPRAMINE, J10 versus J28): agit plus rapidement sur l'état dépressif que l'IMIPRAMINE
